Here are results for 1 cell line from the supplement of paper PMC10307832.

Assay in all cases: relative viability (nuclei count vs DMSO), 5 days (fraction); higher = more cells survive
Compound in assay [1]: C=CC(=O)N1CCC[C@@H](n2nc(-c3ccc(Oc4ccccc4)cc3)c3c(N)ncnc32)C1 [Ibrutinib] + COc1cc2c(Oc3ccc(NC(=O)C4(C(=O)Nc5ccc(F)cc5)CC4)cc3F)ccnc2cc1OCCCN1CCOCC1 [Foretinib] (partner 0.25 µM)
Put shortly:
(§1)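 Lung cancer cell lines were seeded in 1536-well plates and dosed by pin tool the next day, with either a single drug or a fixed anchor-drug dose combined with five library-drug doses (not always all listed) spaced in √10 steps. Five days later, one step fixed the cells and stained their nuclei (final 0.05% Triton X-100, 1% formaldehyde, 1 ug/ml Hoechst), and nuclei were counted on 4× images. Relative viability is the nuclei count in treated wells divided by the count in vehicle wells, and each value is the median of duplicate plates.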

Compound in assay [2]: C=CC(=O)N1CCC[C@@H](n2nc(-c3ccc(Oc4ccccc4)cc3)c3c(N)ncnc32)C1 [Ibrutinib] + N=C(N)NC(=N)NCCc1ccccc1 [Phenformin] (partner 250 µM)
The procedure, abridged:
as §1

Compound in assay [3]: C=CC(=O)Nc1cc(-n2c(=O)ccc3cnc4ccc(-c5ccc(NS(C)(=O)=O)cc5)cc4c32)ccc1C [BMX-IN-1] + COc1cc2c(Oc3ccc(NC(=O)C4(C(=O)Nc5ccc(F)cc5)CC4)cc3F)ccnc2cc1OCCCN1CCOCC1 [Foretinib] (partner 0.25 µM)
Put shortly: as §1

Compound in assay [4]: C=CC(=O)Nc1cc(-n2c(=O)ccc3cnc4ccc(-c5ccc(NS(C)(=O)=O)cc5)cc4c32)ccc1C [BMX-IN-1] + N=C(N)NC(=N)NCCc1ccccc1 [Phenformin] (partner 250 µM)
Put shortly:
as §1

Take SK-MES-1: the relative viability in assay [1] (first compound 0.005 µM) was 1.03; in assay [1] (first compound 0.01581 µM), 0.884; in assay [1] (first compound 0.05 µM), 0.841; in assay [1] (first compound 0.1581 µM) it was 0.989; in assay [1] (first compound 0.5 µM) it was 0.582; in assay [2] (first compound 0.005 µM), 0.733. Further, the relative viability in assay [2] (first compound 0.01581 µM) was determined as 0.629; in assay [2] (first compound 0.05 µM), 0.638; in assay [2] (first compound 0.1581 µM) it was 0.704; in assay [2] (first compound 0.5 µM), 0.501; in assay [3] (first compound 0.02 µM) it was 0.877; in assay [3] (first compound 0.2 µM), 1.02. Further, the relative viability is 0.967 in assay [3] (first compound 0.6325 µM); 0.728 in assay [3] (first compound 2 µM); 0.711 in assay [4] (first compound 0.02 µM); 0.792 in assay [4] (first compound 0.2 µM); 0.695 in assay [4] (first compound 0.6325 µM); 0.724 in assay [4] (first compound 2 µM).
